Experimental data: BindingDB's records for doi:10.1016/S0960-894X(01)80901-X (1993)

Molecular target: Neuromedin-K/NK2 receptor (tachykinin receptor 2), Rattus norvegicus
Assay: Tested in vitro to inhibit the binding of [125I]NKA to its receptor in rat duodenum membrane

Structure (SMILES): CC(=O)NC1(c2ccccc2)CCN(CC[C@H](CN(C)C(=O)c2ccccc2)c2ccc(Cl)c(Cl)c2)CC1 [N-[(R)-4-(4-Acetylamino-4-phenyl-piperidin-1-yl)-2-(3,4-dichloro-phenyl)-butyl]-N-methyl-benzamide]
- Ki: 0.51 nM
